Measured values from US6737383B1, “Herbicidal oxadiazolidines” (priority 1999, dated 2004).

How the values were obtained:
wheat = assay: Test B pre/postemergence wheat; assay type: in vivo, Triticum aestivum; details: for Plant response rating, Wheat: Rate 250 g/ha
Summary of the method: (§1)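 Herbicidal effect was estimated by eye on a ten-point control scale after plants spent twelve to sixteen days in a greenhouse following soil or foliar treatment. Foliar sprays targeted plants at one to four leaves; all doses were formulated in a non-phytotoxic solvent with surfactant.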

winter wheat [1] = assay: Test E winter wheat; assay type: in vivo, Triticum aestivum; details: Preemergence
large crabgrass = assay: Test D large crabgrass; assay type: in vivo, Digitaria sanguinalis; details: Preemergence, 0 to 100 scale
Summary of the method: (§2)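 Values are visual plant-response ratings (0 no injury, 100 complete control) recorded 14 to 21 days after herbicide treatment, using a non-phytotoxic solvent mixture containing surfactant. Preemergence applications went to the surface of pots holding freshly sown seed in sandy loam.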

wild oat [2] = assay: Test B pre/postemergence wild oat; assay type: in vivo, Avena fatua; details: for Plant response rating, Wild oats: Rate 250 g/ha
Summary of the method: as §1

winter wheat [3] = assay: Test E winter wheat; assay type: in vivo, Triticum aestivum; details: Postemergence
Summary of the method: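 Plants were grown under normal greenhouse practice; for postemergence, in sandy loam soil mixed 60:40 with potting mix, treated at the 1- to 4-leaf stage. The compound was in a non-phytotoxic solvent carrying a surfactant. After roughly 21 to 28 days plants were scored visually against untreated plants.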

crabgrass = assay: Test B pre/postemergence crabgrass; assay type: in vivo, Digitaria sanguinalis
Summary of the method: as §1

Italian ryegrass = assay: Test E Italian ryegrass; assay type: in vivo, Lolium multiflorum; details: Preemergence
blackgrass = assay: Test E blackgrass; assay type: in vivo, Alopecurus myosuroides; details: Preemergence
common ragweed = assay: Test D common ragweed; assay type: in vivo, Ambrosia elatior; details: Preemergence, 0 to 100 scale
Summary of the method: as §2

cocklebur = assay: Test B pre/postemergence cocklebur; assay type: in vivo, Xanthium strumarium
Summary of the method: as §1

guineagrass = assay: Test D guineagrass; assay type: in vivo, Panicum maximum; details: Preemergence, 0 to 100 scale
Summary of the method: as §2

winter barley = assay: Test E winter barley; assay type: in vivo, Hordeum vulgare; details: Preemergence
wild oat [4] = assay: Test E wild oat; assay type: in vivo, Avena fatua; details: Preemergence
purple nutsedge = assay: Test D purple nutsedge; assay type: in vivo, Cyperus rotundus; details: Preemergence, 0 to 100 scale
Summary of the method: as §2

green foxtail = assay: Test E green foxtail; assay type: in vivo, Setaria viridis; details: Preemergence
[5] = Postemergence, Rate 125 g/ha, scale of 0 to 10 where 0 is no effect and 10 is complete control
[6] = Preemergence, Rate 62 g/ha, scale 0 to 10 (0 no effect, 10 complete control)
[7] = Preemergence, Rate 125 g/ha, 0 is no effect, 10 is complete control
[8] = Preemergence, scale of 0 to 10 where 0 is no effect and 10 is complete control
[9] = Preemergence, Rate 500 g/ha, scale 0 to 10 (0 no effect, 10 complete control)
[10] = Rate 62 g/ha, Postemergence, scale of 0 to 10 where 0 is no effect and 10 is complete control
[11] = Postemergence, scale 0 to 10, 0 is no effect, 10 is complete control
[12] = Rate 500 g/ha, Postemergence, scale 0 to 10, 0 no effect, 10 complete control
[13] = Rate 62 g/ha, 0 to 100 scale, 0 no effect, 100 complete control
[14] = Rate 125 g/ha, 0 to 100 scale (0 no effect, 100 complete control)
[15] = Rate 16 g/ha, 0 no injury, 100 complete control
[16] = Rate 32 g/ha, 0 no injury, 100 complete control
[17] = Rate 64 g/ha, 0 no injury, 100 complete control
[18] = Rate 125 g/ha, 0 no injury, 100 complete control
[19] = Postemergence, Rate 250 g/ha, scale 0 to 10, 0 no effect, 10 complete control
[20] = Preemergence, Rate 250 g/ha, scale of 0 to 10 where 0 is no effect and 10 is complete control

With `CCCn1c(=O)on(C(=O)N(c2ccc(Cl)cc2)C(C)C)c1=O` [Compound 119] the “Wheat plant response rating” value (wheat; [5]) was 0, the “Wheat plant response rating” value (wheat; [6]) was 0 and the “Wheat plant response rating (0 to 10 scale)” value (wheat; [7]) was 0. The “Plant response rating, Wheat” value (wheat; [8]) was 3, the “Wheat plant response rating” value (wheat; [9]) was 5 and the “Wheat plant response rating” value (wheat; [10]) was 0. For the same compound, the “Plant response rating, Wheat” value (wheat; [11]) was 3, the “Wheat plant response rating” value (wheat; [12]) was 3 and the “Plant response rating, Wheat (winter)” value (winter wheat [1]; [13]) was 0. The “Plant response rating, Wheat (winter)” value (winter wheat [1]; [14]) was 20, the “Plant response rating, Wheat (winter)” value (winter wheat [1]; Rate 250 g/ha, 0 to 100 scale) was 30 and the “Plant response rating, Large crabgrass” value (large crabgrass; [15]) was 85. The “Plant response rating, Large crabgrass” value (large crabgrass; [16]) was 90, the “Plant response rating, Large crabgrass” value (large crabgrass; [17]) was 98 and the “Plant response rating, Large crabgrass” value (large crabgrass; [18]) was 100. For the same compound, the “Plant response rating, Large crabgrass” value (large crabgrass; Rate 250 g/ha) was 100, the “Wild oats plant response rating” value (wild oat [2]; [5]) was 0 and the “Wild oats plant response rating” value (wild oat [2]; [6]) was 5. For the same compound, the “Wild oats plant response rating (0 to 10 scale)” value (wild oat [2]; [7]) was 6, the “Plant response rating, Wild oats” value (wild oat [2]; [8]) was 6 and the “Wild oats plant response rating” value (wild oat [2]; [9]) was 9. For the same compound, the “Wild oats plant response rating” value (wild oat [2]; [10]) was 0, the “Plant response rating, Wild oats” value (wild oat [2]; [11]) was 3 and the “Wild oats plant response rating” value (wild oat [2]; [12]) was 6. For the same compound, the “Plant response rating, Wheat (winter)” value (winter wheat [3]; Rate 62 g/ha, 0 to 100 scale) was 10, the “Plant response rating, Wheat (winter)” value (winter wheat [3]; Rate 125 g/ha, 0 to 100 scale) was 10 and the “Plant response rating, Wheat (winter)” value (winter wheat [3]; Rate 250 g/ha, 0 to 100 scale (0 no effect, 100 complete control)) was 20. For the same compound, the “Crabgrass plant response rating” value (crabgrass; [5]) was 3, the “Crabgrass plant response rating” value (crabgrass; [19]) was 8 and the “Crabgrass plant response rating” value (crabgrass; [6]) was 7. For the same compound, the “Plant response rating, Crabgrass” value (crabgrass; [20]) was 8, the “Crabgrass plant response rating” value (crabgrass; [9]) was 10 and the “Crabgrass plant response rating” value (crabgrass; [10]) was 2. The “Crabgrass plant response rating” value (crabgrass; [12]) was 8, the “Plant response rating, I. Ryegrass” value (Italian ryegrass; [13]) was 10 and the “Plant response rating, I. Ryegrass” value (Italian ryegrass; [14]) was 35. The “Plant response rating, I. Ryegrass” value (Italian ryegrass; Rate 250 g/ha, 0 to 100 scale) was 60, the “Plant response rating, Blackgrass” value (blackgrass; [13]) was 20 and the “Plant response rating, Blackgrass” value (blackgrass; [14]) was 10. For the same compound, the “Plant response rating, Blackgrass” value (blackgrass; Rate 250 g/ha, 0 to 100 scale) was 50, the “Plant response rating, C. ragweed” value (common ragweed; [15]) was 0 and the “Plant response rating, C. ragweed” value (common ragweed; [16]) was 0. For the same compound, the “Plant response rating, C. ragweed” value (common ragweed; [17]) was 0, the “Plant response rating, C. ragweed” value (common ragweed; [18]) was 0 and the “Plant response rating, C. ragweed” value (common ragweed; Rate 250 g/ha) was 0. For the same compound, the “Cocklebur plant response rating” value (cocklebur; [5]) was 0, the “Cocklebur plant response rating” value (cocklebur; [19]) was 0 and the “Cocklebur plant response rating” value (cocklebur; [6]) was 0. The “Plant response rating, Cocklebur” value (cocklebur; Preemergence, Rate 125 g/ha, scale 0 to 10 (0 no effect, 10 complete control)) was 0, the “Plant response rating, Cocklebur” value (cocklebur; [20]) was 0 and the “Cocklebur plant response rating” value (cocklebur; [10]) was 0. The “Cocklebur plant response rating” value (cocklebur; [12]) was 0, the “Plant response rating, Guineagrass” value (guineagrass; [15]) was 65 and the “Plant response rating, Guineagrass” value (guineagrass; [16]) was 75. The “Plant response rating, Guineagrass” value (guineagrass; [17]) was 85, the “Plant response rating, Guineagrass” value (guineagrass; [18]) was 98 and the “Plant response rating, Guineagrass” value (guineagrass; Rate 250 g/ha) was 98. The “Plant response rating, Barley (winter)” value (winter barley; [13]) was 5, the “Plant response rating, Barley (winter)” value (winter barley; [14]) was 10 and the “Plant response rating, Barley (winter)” value (winter barley; Rate 250 g/ha, 0 to 100 scale) was 10. The “Plant response rating, Wild oat” value (wild oat [4]; [13]) was 20, the “Plant response rating, Wild oat” value (wild oat [4]; [14]) was 10 and the “Plant response rating, Purple nutsedge” value (purple nutsedge; [15]) was 0. For the same compound, the “Plant response rating, Purple nutsedge” value (purple nutsedge; [16]) was 0, the “Purple nutsedge plant response rating” value (purple nutsedge; [17]) was 0 and the “Purple nutsedge plant response rating” value (purple nutsedge; [18]) was 0. The “Plant response rating, Purple nutsedge” value (purple nutsedge; Rate 250 g/ha) was 0, the “Plant response rating, Green foxtail” value (green foxtail; [13]) was 10 and the “Plant response rating, Green foxtail” value (green foxtail; [14]) was 50. The “Plant response rating, Green foxtail” value (green foxtail; Rate 250 g/ha, 0 to 100 scale) was 60.
